Measured values: ChEMBL document CHEMBL1130755, “Synthesis of a new class of camptothecin derivatives, the long-chain fatty acid esters of 10-hydroxycamptothecin, as a potent prodrug candidate, and their in vitro metabolic conversion by carboxylesterases” (Bioorg Med Chem Lett, 1998)

Assays:
[1] = system: Liver carboxylesterase 1 (Sus scrofa); assay: Specific activity (hydrolysis) by purified carboxylesterase isozyme P1 against microsomes in pig liver
[2] = target: T1, Carboxylesterase 1E (Rattus norvegicus, UniProt Q63108); assay: Specific activity (hydrolysis) by purified carboxylesterase isozyme RH1 against microsomes in rat liver
T1 sequence (Q63108 whole entry): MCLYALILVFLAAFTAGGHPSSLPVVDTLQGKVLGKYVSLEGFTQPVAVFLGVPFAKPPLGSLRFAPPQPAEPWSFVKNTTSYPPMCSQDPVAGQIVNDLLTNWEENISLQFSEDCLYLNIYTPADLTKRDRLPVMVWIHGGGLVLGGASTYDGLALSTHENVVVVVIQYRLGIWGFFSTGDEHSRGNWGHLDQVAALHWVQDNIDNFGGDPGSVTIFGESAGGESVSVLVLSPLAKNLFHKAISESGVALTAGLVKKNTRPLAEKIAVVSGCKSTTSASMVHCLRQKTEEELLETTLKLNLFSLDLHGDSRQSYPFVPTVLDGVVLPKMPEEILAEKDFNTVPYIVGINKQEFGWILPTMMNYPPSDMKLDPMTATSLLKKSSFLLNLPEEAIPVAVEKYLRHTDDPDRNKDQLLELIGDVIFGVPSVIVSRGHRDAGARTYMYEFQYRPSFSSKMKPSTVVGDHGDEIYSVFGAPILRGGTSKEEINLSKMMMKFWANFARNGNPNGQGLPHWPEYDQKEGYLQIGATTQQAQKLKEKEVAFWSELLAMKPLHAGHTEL

[3] = target: T2, Liver carboxylesterase 1 (Homo sapiens, UniProt P23141); assay: Specific activity (hydrolysis) by purified carboxylesterase isozyme HU1 against microsomes in human liver
T2 sequence (P23141 whole entry): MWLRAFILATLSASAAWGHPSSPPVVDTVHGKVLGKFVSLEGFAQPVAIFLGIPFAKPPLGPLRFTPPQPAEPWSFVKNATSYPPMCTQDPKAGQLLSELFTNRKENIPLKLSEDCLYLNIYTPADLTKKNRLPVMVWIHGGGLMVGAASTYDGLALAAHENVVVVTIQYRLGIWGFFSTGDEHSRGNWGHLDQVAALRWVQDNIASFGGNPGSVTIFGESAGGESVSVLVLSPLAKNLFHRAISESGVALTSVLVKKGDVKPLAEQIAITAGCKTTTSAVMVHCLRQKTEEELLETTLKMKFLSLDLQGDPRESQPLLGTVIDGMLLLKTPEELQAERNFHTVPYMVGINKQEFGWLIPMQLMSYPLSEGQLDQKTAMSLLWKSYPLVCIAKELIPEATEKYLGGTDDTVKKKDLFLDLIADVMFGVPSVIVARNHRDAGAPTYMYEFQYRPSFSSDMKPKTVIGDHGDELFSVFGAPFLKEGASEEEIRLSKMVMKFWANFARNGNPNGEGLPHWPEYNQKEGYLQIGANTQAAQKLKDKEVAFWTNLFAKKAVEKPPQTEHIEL

CCCCCCCCCCCC(=O)Oc1ccc2nc3c(cc2c1)Cn1c-3cc2c(c1=O)COC(=O)[C@]2(O)CC
Activity [1]: 42.1 nM/mg/min
Activity [2]: 19.1 nmol/min/mg
Activity [3]: 15.3 nmol/min/mg

CCCCCCCCCCCCCCCC(=O)Oc1ccc2nc3c(cc2c1)Cn1c-3cc2c(c1=O)COC(=O)[C@]2(O)CC
Activity [1]: 9.13 nM/mg/min
Activity [2]: 2.33 nmol/min/mg
Activity [3]: 1.58 nmol/min/mg

CCCCCCCCCC(=O)Oc1ccc2nc3c(cc2c1)Cn1c-3cc2c(c1=O)COC(=O)[C@]2(O)CC
Activity [1]: 37.4 nM/mg/min
Activity [2]: 17.4 nmol/min/mg
Activity [3]: 27.9 nmol/min/mg

CCc1c2c(nc3ccc(OC(=O)N4CCC(N5CCCCC5)CC4)cc13)-c1cc3c(c(=O)n1C2)COC(=O)[C@]3(O)CC [IRINOTECAN]
Activity [2]: 0.259 nmol/min/mg

CCCCCCCCCCCCCCCCCC(=O)Oc1ccc2nc3c(cc2c1)Cn1c-3cc2c(c1=O)COC(=O)[C@]2(O)CC
Activity [1]: 3.02 nM/mg/min
Activity [2]: 0.698 nmol/min/mg
Activity [3]: 1.27 nmol/min/mg

CCCCCCCCCCCCCCCCCCCC(=O)Oc1ccc2nc3c(cc2c1)Cn1c-3cc2c(c1=O)COC(=O)[C@]2(O)CC
Activity [1]: 0.854 nM/mg/min
Activity [2]: 0.183 nmol/min/mg
Activity [3]: 1.07 nmol/min/mg
